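Method: 48-hour compound exposure of cells in 96-well plates, five concentrations, linear interpolation of endpoints. GI50 marks 50% less growth. TGI: concentration producing complete growth inhibition.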
Experiments:
Test in all cases: DTP human tumour cell line panel, 48 h
OVCAR-3 ovarian = test system: OVCAR-3 ovarian
UO-31 renal = test system: UO-31 renal
SK-MEL-28 melanoma = test system: SK-MEL-28 melanoma
SK-MEL-5 melanoma = test system: SK-MEL-5 melanoma
CCRF-CEM leukemia = test system: CCRF-CEM leukemia
786-0 renal = test system: 786-0 renal
MDA-MB-231 breast = test system: MDA-MB-231 breast
DU-145 prostate = test system: DU-145 prostate
HL-60(TB) leukemia = test system: HL-60(TB) leukemia
KM12 colon = test system: KM12 colon

Structure (SMILES) | GI50 (OVCAR-3 ovarian) | TGI (OVCAR-3 ovarian) | GI50 (UO-31 renal) | TGI (UO-31 renal) | GI50 (SK-MEL-28 melanoma) | TGI (SK-MEL-28 melanoma) | GI50 (SK-MEL-5 melanoma) | TGI (SK-MEL-5 melanoma) | GI50 (CCRF-CEM leukemia) | TGI (CCRF-CEM leukemia) | GI50 (786-0 renal) | TGI (786-0 renal) | GI50 (MDA-MB-231 breast) | TGI (MDA-MB-231 breast) | GI50 (DU-145 prostate) | TGI (DU-145 prostate) | GI50 (HL-60(TB) leukemia) | TGI (HL-60(TB) leukemia) | GI50 (KM12 colon) | TGI (KM12 colon)
CCOC(=O)c1cc(C(=O)c2cc(OC)c(OC)c(OC)c2)n2ncccc12 | 0.145 µM | 1.84 µM | 0.782 µM | > 100 µM | 4.68 µM | > 100 µM | 0.247 µM | > 100 µM | 0.297 µM | > 100 µM | 2.17 µM | > 100 µM | 1.82 µM | > 100 µM | 0.37 µM | > 100 µM | 0.251 µM | 0.763 µM | 0.342 µM | > 100 µM
CCOC(=O)c1ccc(NC(=O)Nc2nncs2)cc1 | 0.0963 µM | 0.415 µM | 1.48 µM | 28.7 µM | 0.25 µM | 56 µM | 0.0672 µM | 5.16 µM | 0.23 µM | > 52.7 µM | 0.474 µM | 14.5 µM | 0.532 µM | 6.35 µM | 0.309 µM | 4.11 µM | 0.106 µM | 6.7 µM | 0.136 µM | 11.8 µM
COc1cc(/C=C\c2cc(OC)c(OC)c(OC)c2)cc(N/C=C\C(=O)c2ccc(OC(F)(F)F)cc2)c1OC | 3.48 µM | 10.6 µM | 5.42 µM | > 100 µM | 10.4 µM | > 100 µM | 3.74 µM | > 100 µM | 3.55 µM | > 100 µM | 4.34 µM | > 100 µM | 3 µM | 14.5 µM | 4.11 µM | > 100 µM | 2.8 µM | 8.08 µM | 3.69 µM | > 100 µM
COC[C@@H](N=C1NC(=O)/C(=C/c2ccc3ncccc3c2)S1)c1ccccc1 | 9.38 µM | > 25 µM | 6.7 µM | > 25 µM | 18.8 µM | > 25 µM | 7.51 µM | 24.9 µM | 6.8 µM | > 22 µM | 10.2 µM | > 25 µM | 12.7 µM | > 25 µM | 12 µM | > 25 µM | 6.39 µM | 19.2 µM | 10.8 µM | > 25 µM
COc1ccc(/C=C(/C#N)C(N)=O)c(OC)c1 |  | > 100 µM |  | 26.8 µM |  | > 100 µM |  | > 100 µM |  | > 100 µM |  | > 100 µM |  | > 100 µM |  | > 100 µM |  | > 100 µM |  | > 100 µM
COc1ccc(C2CC(c3cccc(Nc4ccnc5cc(Cl)ccc45)c3)=NN2C=O)cc1 (centres undefined) | 0.383 µM | 3.59 µM | 0.989 µM | > 100 µM | 1.13 µM | 25.6 µM | 0.403 µM | 25.8 µM | 0.434 µM |  | 0.665 µM | 30.8 µM | 1.7 µM | > 66.4 µM | 0.978 µM | > 34.9 µM | 0.257 µM | 0.774 µM | 0.4 µM | > 36.4 µM
COc1cc(C2Cc3ncccc3-c3[nH]c(=O)c4cccnc4c32)cc(OC)c1OC (centres undefined) | 0.323 µM | 5.49 µM | 0.819 µM | > 100 µM | 36 µM | > 100 µM | 0.339 µM | 20.2 µM | 0.467 µM | > 100 µM | 1.41 µM | > 100 µM | 3.88 µM | > 100 µM | 0.428 µM | > 100 µM | 0.251 µM | 2.95 µM | 0.373 µM | > 100 µM
Cc1nc([P+](c2ccccc2)(c2ccccc2)c2ccccc2)c(Sc2sc(-c3ccccc3)nc2[P+](c2ccccc2)(c2ccccc2)c2ccccc2)o1 | 0.76 µM | 3.29 µM | 1.81 µM | 5.99 µM | 1.99 µM | 10.5 µM | 1.48 µM | 2.85 µM | 0.959 µM | 9.4 µM | 2.34 µM | 11.2 µM | 1.86 µM | 6.27 µM | 1.22 µM | 4.96 µM | 1.39 µM | 4 µM | 1.39 µM | 3.35 µM
CCOC(=O)C1Cc2c(cc3c4c(cccc24)N(C(C)=O)C3)N(C)C1 (centres undefined) |  | 3.27 µM |  | > 100 µM |  | > 100 µM |  | > 100 µM |  | > 100 µM |  | > 100 µM |  | 5.71 µM |  | > 100 µM |  | > 100 µM |  | > 100 µM
CC1=CC(=O)C2=C(C)CCC3C(C)C(=O)OC3C12 (centres undefined) |  | > 100 µM |  | > 100 µM |  | > 100 µM |  | > 100 µM |  | > 100 µM |  | > 100 µM |  | > 100 µM |  | > 100 µM |  | > 100 µM |  | > 100 µM
COc1ccc2c(c1)/C(=C\c1c(-c3cc(OC)ccc3OC)nc3sc(C)cn13)C(=O)N2C | 15.6 µM | 54.5 µM | 16.8 µM | > 100 µM | 16 µM | 32.3 µM | 20.9 µM | 65.4 µM | 12.1 µM | > 100 µM | 31.1 µM | > 100 µM | 16.7 µM | 96.7 µM | 56.9 µM | > 100 µM | 18.3 µM | 41.4 µM | 37.7 µM | > 100 µM

— PubChem BioAssay (NCI)
